How the values were obtained:
[1] = molecular target: Cyclin-dependent kinase 4/cyclin D1 (Homo sapiens) (UniProt P11802+P24385); experiment: Inhibition of CDK4-cyclin D1 (unknown origin) assessed as residual activity at 1000 nM by KINOMEscan analysis relative to control; assay type: protein-complex assay
[2] = test system: Epidermal growth factor receptor (Homo sapiens), P00533 [L861Q]; experiment: Inhibition of EGFR L861Q mutant (unknown origin) assessed as residual activity at 1000 nM by KINOMEscan analysis relative to control
[3] = molecular target: Ephrin type-A receptor 5 (Homo sapiens) (UniProt P54756); experiment: Inhibition of EPHA5 (unknown origin) assessed as residual activity at 1000 nM by KINOMEscan analysis relative to control
Ephrin type-A receptor 5 (Homo sapiens), sequence (P54756 whole entry): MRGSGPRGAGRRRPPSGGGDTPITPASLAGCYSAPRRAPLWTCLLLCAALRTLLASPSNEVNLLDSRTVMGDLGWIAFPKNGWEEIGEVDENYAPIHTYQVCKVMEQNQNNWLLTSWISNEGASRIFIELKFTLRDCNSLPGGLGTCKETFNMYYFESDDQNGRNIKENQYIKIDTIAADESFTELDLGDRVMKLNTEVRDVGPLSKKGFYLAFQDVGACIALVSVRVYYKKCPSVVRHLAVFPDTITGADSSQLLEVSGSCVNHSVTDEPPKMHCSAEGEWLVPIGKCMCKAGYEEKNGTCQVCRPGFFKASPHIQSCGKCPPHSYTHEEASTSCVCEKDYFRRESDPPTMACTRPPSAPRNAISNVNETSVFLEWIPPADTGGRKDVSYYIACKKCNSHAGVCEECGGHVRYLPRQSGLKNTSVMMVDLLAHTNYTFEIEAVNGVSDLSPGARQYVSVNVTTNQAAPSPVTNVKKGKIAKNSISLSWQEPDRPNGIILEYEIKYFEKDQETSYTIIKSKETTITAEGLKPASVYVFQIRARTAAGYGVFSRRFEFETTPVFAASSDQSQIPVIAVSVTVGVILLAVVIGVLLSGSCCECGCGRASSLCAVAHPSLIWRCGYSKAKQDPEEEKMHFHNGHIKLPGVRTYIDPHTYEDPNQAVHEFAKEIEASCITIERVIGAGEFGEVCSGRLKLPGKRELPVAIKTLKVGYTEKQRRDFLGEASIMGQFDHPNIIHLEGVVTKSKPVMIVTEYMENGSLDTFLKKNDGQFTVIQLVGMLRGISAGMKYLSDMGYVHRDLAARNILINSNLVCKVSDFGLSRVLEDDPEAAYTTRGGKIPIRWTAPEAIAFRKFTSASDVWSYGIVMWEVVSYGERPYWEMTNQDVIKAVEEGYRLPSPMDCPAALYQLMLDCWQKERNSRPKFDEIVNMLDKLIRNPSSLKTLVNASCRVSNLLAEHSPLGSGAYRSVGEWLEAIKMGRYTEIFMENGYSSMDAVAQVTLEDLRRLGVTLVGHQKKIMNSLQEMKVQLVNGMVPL

[4] = molecular target: T1, Ephrin type-A receptor 8 (Homo sapiens) (UniProt P29322); experiment: Inhibition of EPHA8 (unknown origin) assessed as residual activity at 1000 nM by KINOMEscan analysis relative to control
T1 sequence (whole entry): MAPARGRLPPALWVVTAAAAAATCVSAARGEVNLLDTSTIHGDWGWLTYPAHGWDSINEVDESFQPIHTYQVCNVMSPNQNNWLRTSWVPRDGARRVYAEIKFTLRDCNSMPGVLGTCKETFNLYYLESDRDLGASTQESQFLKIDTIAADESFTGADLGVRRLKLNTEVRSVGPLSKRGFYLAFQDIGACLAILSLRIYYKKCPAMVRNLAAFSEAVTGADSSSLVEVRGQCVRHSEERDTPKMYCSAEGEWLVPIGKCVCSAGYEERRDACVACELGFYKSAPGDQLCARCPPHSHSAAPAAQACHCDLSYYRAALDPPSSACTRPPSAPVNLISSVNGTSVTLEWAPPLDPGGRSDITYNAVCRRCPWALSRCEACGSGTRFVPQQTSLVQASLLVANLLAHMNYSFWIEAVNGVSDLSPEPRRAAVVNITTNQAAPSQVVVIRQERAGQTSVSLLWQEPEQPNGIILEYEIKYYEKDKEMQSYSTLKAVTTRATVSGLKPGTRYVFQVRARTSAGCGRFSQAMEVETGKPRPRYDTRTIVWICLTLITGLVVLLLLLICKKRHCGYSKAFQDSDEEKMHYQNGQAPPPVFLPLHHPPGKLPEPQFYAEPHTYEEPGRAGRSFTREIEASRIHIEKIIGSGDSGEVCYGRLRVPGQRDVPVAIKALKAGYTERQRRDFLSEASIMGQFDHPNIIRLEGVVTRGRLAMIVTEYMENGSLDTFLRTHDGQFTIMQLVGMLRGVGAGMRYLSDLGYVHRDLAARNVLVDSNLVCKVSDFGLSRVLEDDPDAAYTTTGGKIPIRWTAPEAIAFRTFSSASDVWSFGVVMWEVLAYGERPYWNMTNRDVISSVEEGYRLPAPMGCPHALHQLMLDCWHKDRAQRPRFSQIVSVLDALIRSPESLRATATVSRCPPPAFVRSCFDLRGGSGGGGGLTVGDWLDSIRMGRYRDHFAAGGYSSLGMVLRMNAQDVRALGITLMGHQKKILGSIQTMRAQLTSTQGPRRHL

[5] = molecular target: Focal adhesion kinase 1 (Homo sapiens) (UniProt Q05397); experiment: Inhibition of FAK (unknown origin) assessed as residual activity at 1000 nM by KINOMEscan analysis relative to control
Focal adhesion kinase 1 (Homo sapiens), sequence (Q05397 2-1052 limits assumed): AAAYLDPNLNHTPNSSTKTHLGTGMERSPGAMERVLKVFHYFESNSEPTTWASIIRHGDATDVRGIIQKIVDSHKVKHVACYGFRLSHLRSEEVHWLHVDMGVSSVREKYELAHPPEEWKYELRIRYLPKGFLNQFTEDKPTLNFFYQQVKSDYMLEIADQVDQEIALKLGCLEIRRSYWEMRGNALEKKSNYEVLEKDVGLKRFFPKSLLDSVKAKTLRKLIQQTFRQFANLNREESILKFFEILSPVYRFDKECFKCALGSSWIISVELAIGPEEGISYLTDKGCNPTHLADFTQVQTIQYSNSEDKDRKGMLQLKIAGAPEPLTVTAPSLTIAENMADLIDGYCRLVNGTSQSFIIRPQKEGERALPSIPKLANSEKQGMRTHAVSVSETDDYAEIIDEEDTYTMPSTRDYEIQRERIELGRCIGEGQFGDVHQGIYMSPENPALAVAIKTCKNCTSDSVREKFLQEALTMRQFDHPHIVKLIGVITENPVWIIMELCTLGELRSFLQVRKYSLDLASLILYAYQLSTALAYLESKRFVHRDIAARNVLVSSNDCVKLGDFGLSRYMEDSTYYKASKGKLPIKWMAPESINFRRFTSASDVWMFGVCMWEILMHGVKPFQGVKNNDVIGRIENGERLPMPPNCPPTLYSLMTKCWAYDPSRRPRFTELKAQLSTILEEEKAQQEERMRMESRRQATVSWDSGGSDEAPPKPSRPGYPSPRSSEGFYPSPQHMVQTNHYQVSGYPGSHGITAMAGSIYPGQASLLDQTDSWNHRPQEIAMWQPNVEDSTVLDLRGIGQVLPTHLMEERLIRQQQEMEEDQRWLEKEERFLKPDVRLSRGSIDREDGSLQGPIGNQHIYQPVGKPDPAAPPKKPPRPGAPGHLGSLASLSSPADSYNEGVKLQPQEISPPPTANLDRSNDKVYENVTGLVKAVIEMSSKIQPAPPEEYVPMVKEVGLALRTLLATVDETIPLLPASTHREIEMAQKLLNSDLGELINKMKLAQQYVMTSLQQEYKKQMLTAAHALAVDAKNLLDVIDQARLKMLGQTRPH

[6] = molecular target: Mast/stem cell growth factor receptor Kit (Homo sapiens) (UniProt P10721); experiment: Inhibition of KIT (unknown origin) assessed as residual activity at 1000 nM by KINOMEscan analysis relative to control
Mast/stem cell growth factor receptor Kit (Homo sapiens), sequence (P10721 whole entry): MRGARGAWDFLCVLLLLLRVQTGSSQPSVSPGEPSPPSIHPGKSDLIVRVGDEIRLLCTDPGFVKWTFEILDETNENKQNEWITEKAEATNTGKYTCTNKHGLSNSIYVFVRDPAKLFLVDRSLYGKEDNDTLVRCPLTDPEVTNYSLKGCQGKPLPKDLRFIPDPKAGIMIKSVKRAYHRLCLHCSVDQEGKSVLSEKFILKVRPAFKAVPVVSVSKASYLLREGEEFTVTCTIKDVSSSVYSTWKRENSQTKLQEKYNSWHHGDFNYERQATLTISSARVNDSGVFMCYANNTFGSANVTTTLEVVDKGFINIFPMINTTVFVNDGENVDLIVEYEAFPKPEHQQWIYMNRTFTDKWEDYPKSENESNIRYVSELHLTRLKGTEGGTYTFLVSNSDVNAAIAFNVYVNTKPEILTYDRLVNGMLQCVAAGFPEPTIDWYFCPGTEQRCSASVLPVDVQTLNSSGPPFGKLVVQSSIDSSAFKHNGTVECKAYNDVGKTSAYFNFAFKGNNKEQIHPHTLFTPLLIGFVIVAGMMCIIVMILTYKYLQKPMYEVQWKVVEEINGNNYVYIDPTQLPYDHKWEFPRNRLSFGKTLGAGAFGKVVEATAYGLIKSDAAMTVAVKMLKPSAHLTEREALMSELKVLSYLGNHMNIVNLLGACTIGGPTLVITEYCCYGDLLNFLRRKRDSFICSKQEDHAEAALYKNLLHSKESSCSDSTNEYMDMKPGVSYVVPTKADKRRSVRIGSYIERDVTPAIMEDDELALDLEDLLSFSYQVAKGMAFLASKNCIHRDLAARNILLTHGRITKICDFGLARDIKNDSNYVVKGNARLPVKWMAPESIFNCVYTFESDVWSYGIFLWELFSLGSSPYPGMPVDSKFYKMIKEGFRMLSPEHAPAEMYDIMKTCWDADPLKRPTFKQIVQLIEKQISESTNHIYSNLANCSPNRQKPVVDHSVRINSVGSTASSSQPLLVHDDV

[7] = molecular target: T2, MAP kinase-activated protein kinase 5 (Homo sapiens) (UniProt Q8IW41); experiment: Inhibition of MAPKAPK5 (unknown origin) assessed as residual activity at 1000 nM by KINOMEscan analysis relative to control
T2 sequence (whole entry): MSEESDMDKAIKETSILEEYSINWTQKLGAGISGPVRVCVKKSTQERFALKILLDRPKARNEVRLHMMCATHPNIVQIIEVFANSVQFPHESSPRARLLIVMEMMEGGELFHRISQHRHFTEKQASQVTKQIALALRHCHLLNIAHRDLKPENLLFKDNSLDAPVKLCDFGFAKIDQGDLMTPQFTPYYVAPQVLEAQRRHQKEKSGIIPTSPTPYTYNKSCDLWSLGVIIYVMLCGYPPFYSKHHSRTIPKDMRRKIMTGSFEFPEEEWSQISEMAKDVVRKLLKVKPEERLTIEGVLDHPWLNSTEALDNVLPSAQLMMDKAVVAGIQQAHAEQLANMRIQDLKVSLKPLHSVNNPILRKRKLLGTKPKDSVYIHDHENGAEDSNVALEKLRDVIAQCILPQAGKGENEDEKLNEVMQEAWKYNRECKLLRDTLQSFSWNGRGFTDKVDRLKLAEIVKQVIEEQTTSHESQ

[8] = molecular target: Serine/threonine-protein kinase PRP4 homolog (Homo sapiens) (UniProt Q13523); experiment: Inhibition of PRP4 (unknown origin) assessed as residual activity at 1000 nM by KINOMEscan analysis relative to control
Serine/threonine-protein kinase PRP4 homolog (Homo sapiens), sequence (Q13523 whole entry): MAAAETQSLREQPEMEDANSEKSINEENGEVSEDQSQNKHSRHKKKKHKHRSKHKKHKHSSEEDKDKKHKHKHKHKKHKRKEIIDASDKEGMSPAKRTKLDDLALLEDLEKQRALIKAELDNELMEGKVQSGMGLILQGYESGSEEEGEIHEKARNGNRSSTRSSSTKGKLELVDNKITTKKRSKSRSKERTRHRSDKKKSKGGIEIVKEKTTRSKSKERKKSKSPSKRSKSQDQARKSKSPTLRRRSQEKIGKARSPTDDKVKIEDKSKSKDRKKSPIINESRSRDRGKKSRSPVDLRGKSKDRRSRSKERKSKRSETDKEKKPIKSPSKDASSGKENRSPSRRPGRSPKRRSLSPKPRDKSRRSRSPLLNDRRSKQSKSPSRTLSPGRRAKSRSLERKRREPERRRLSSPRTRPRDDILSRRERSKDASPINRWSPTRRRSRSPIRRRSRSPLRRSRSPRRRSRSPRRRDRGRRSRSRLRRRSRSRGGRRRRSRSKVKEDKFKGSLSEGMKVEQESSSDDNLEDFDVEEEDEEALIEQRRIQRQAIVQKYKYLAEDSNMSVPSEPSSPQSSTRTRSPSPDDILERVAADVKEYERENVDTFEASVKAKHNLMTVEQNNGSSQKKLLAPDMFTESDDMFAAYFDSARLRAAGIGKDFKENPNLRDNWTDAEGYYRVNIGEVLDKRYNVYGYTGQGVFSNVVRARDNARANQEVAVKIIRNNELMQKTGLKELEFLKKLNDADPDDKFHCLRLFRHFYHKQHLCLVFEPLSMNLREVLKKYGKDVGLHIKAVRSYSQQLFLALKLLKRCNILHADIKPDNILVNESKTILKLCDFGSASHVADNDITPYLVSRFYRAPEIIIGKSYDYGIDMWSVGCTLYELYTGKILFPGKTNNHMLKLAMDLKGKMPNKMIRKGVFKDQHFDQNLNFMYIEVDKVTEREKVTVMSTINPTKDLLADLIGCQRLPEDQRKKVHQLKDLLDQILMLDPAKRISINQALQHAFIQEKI

[9] = molecular target: T3, Serine/threonine-protein kinase TNNI3K (Homo sapiens) (UniProt Q59H18); experiment: Inhibition of TNNI3K (unknown origin) assessed as residual activity at 1000 nM by KINOMEscan analysis relative to control
T3 sequence (whole entry): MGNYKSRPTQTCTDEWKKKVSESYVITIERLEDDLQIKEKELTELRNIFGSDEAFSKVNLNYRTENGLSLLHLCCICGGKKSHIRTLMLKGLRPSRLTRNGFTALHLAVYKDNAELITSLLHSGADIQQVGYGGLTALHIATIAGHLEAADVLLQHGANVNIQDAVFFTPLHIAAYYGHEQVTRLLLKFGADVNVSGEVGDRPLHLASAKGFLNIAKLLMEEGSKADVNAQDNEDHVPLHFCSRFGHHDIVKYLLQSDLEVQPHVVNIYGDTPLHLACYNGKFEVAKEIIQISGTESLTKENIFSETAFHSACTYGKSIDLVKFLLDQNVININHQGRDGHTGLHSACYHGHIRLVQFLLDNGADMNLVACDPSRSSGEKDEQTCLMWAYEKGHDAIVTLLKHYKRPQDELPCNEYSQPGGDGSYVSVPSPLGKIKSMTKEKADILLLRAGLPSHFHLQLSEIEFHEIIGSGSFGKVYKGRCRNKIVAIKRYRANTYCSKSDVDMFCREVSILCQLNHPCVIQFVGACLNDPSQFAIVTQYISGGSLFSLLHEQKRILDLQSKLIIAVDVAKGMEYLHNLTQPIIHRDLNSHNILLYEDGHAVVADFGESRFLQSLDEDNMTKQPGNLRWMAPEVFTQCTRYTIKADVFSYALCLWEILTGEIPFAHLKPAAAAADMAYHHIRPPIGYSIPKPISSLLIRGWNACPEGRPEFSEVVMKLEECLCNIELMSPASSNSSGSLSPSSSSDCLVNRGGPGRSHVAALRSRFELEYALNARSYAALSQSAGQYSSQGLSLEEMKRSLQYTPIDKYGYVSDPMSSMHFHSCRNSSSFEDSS

## COc1cc2nc(C)nc(N[C@H](C)c3cccc(-c4cn[nH]c4)c3)c2cc1OC
[1]
  Activity: 100%
[2]
  Activity: 86%
[3]
  Activity: 94%
[4]
  Activity: 100%
[5]
  Activity: 95%
[6]
  Activity: 99%
[7]
  Activity: 85%
[8]
  Activity: 94%
[9]
  Activity: 96%

## COc1cc2ncnc(N[C@H](C)c3cccc4ccccc34)c2cc1OC
[1]
  Activity: 98%
[2]
  Activity: 1.1%
[3]
  Activity: 100%
[4]
  Activity: 94%
[5]
  Activity: 100%
[6]
  Activity: 100%
[7]
  Activity: 87%
[8]
  Activity: 95%
[9]
  Activity: 100%

Reference: ChEMBL document CHEMBL5678818, “Discovery of potent SOS1 inhibitors that block RAS activation via disruption of the RAS-SOS1 interaction” (Proc Natl Acad Sci U S A, 2019)
